# Like-named read-outs stand apart in the source and are kept apart here.
# Legend:
# HDAC3 = HDAC3 (Homo sapiens (Human), UniProt O15379); experiment: HDAC enzyme assay, HDAC3; assay type: biochemical
# Method: (§1) Compounds for testing were diluted in DMSO to 50 fold the final concentration and a ten point three fold dilution series was made. The compounds were diluted in assay buffer (50 mM HEPES, pH 7.4, 100 mM KCl, 0.001% Tween-20, 0.05% BSA, 20 μM TCEP) to 6 fold their final concentration. […] The tripeptide substrate and trypsin at 0.05 μM final concentration were diluted in assay buffer at 6 fold their final concentration. The final enzyme concentrations used in these assays were 3.3 ng/ml (HDAC1), 0.2 ng/ml (HDAC2), 0.08 ng/ml (HDAC3) and 2 ng/ml (HDAC6). […] Five μl compounds and 20 μl of enzyme were added to wells of a black, opaque 384 well plate in duplicate. Enzyme and compound were incubated together at room temperature for 10 minutes. […] The development of fluorescence was monitored for 60 min and the linear rate of the reaction was calculated. The IC50 was determined using Graph Pad Prism by a four parameter curve fit.
# HDAC6 = HDAC6 (Homo sapiens (Human), UniProt Q9UBN7); experiment: HDAC enzyme assay, HDAC6
# Method: as §1
# refractory relapsed MM = conditions: 202 patients with refractory relapsed MM; cited from earlier work
# Sequence of HDAC3 (O15379 whole entry): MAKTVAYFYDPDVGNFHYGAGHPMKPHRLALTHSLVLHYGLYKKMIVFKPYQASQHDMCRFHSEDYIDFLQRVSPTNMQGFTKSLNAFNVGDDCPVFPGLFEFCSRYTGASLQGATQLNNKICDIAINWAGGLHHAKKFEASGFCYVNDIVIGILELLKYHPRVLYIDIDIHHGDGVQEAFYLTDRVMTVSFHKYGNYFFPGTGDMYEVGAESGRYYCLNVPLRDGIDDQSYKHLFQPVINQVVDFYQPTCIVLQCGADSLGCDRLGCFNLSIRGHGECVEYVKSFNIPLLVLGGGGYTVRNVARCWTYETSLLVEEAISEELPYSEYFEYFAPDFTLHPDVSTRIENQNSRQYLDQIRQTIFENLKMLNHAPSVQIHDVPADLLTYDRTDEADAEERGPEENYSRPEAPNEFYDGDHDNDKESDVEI
# Sequence of HDAC3 (Q9Y618 395-489 partner): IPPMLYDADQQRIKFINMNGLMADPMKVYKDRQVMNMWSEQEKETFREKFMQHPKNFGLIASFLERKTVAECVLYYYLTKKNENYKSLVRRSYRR
# Sequence of HDAC6 (Q9UBN7 whole entry): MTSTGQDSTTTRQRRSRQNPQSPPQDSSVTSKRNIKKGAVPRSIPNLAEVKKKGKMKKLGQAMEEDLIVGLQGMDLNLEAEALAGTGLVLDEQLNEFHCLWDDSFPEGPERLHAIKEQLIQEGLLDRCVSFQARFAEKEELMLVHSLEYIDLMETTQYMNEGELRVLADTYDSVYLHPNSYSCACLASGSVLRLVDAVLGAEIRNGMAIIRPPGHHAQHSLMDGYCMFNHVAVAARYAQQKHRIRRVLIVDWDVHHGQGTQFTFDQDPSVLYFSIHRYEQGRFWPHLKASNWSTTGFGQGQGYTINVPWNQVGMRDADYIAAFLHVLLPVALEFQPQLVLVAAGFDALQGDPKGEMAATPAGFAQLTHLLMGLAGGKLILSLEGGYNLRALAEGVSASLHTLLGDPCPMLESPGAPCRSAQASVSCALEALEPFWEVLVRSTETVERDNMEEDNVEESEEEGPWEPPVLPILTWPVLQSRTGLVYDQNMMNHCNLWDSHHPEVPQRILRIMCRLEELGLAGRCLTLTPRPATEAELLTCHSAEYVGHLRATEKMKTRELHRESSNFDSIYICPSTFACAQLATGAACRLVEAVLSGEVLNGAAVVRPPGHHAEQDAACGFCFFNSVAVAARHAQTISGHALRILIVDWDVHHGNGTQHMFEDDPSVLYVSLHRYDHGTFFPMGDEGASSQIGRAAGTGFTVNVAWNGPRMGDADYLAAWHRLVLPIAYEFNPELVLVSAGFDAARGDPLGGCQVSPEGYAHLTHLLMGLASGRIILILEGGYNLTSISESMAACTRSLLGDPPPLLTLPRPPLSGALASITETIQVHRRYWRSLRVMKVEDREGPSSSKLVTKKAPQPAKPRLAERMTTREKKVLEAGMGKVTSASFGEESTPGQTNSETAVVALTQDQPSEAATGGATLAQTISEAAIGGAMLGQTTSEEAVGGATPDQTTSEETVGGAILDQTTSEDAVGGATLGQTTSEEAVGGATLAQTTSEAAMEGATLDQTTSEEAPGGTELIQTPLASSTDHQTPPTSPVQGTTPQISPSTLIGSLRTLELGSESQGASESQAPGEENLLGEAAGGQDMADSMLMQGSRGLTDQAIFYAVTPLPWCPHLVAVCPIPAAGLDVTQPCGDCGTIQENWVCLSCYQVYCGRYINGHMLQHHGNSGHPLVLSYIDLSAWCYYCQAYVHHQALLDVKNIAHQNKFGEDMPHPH
smiles,measurement,setting,value
COC(c1ccccc1)(c1ccccc1)c1ccc(C(=O)NCCCCCCC(=O)NO)cc1 [N-(7-(hydroxyamino)-7-oxoheptyl)-4-(methoxydiphenylmethyl)benzamide],IC50,"HDAC3; 0.08 ng/ml enzyme, 17 μM tripeptide substrate, read-out: IC50(nM) HDAC3",243 nM
same,IC50,HDAC6,0.007 µM
NC(=O)CCCCCCNC(=O)c1cnc(N(c2ccccc2)c2ccccc2)nc1 [N-(7-amino-7-oxoheptyl)-2-(diphenylamino)pyrimidine-5-carboxamide],IC50,"HDAC3; μM, read-out: IC50 HDAC3",> 50000 nM
same,IC50,"HDAC6; read-out: IC50 HDAC6, μM",> 50 µM
CC(C)C[C@H](NC(=O)[C@H](Cc1ccccc1)NC(=O)c1cnccn1)B(O)O [bortezomib],complete and near complete responses,refractory relapsed MM,10%
same,patients did not respond,refractory relapsed MM,65%
same,responses,refractory relapsed MM,35%

# From patent US8609678B2, “Reverse amide compounds as protein deacetylase inhibitors and methods of use thereof” (Acetylon Pharmaceuticals, priority 2010, dated 2013)
